Experimental data reported in patent publication US12336991B2, “Factor XIIA inhibitors” (UNIVERSITY OF LEEDS, priority 2018, dated 2025).

Tests used:
Assay type in all cases: biochemical
FXIIa = biological target: T1, FXIIa (Homo sapiens, UniProt P00748); experiment: Determination of Factor XIIa inhibition, chromogenic substrate S-2302 assay; conditions: human FXIIa alpha
T1 sequence (P00748 373-615 limits assumed): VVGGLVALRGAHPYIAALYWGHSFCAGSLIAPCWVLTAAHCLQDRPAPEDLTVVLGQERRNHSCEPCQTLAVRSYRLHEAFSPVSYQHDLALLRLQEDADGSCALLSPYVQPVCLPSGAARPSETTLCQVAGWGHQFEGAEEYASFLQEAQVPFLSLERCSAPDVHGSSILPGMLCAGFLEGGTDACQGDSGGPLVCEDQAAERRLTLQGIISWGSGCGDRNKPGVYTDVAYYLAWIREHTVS
T1 sequence (P00748 20-372 partner limits assumed): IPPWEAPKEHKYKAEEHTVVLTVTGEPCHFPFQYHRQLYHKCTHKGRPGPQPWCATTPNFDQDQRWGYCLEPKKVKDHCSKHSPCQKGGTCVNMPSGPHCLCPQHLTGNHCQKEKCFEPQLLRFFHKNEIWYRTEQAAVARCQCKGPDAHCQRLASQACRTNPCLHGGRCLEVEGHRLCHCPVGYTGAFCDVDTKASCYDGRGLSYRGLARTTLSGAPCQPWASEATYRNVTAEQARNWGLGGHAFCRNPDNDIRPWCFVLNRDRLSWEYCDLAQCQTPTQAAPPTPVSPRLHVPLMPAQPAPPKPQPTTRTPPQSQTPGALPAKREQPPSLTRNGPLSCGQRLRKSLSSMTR
Summary of the method: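 FXIIa (10 nM) preincubated with compound 10 min at 37° C. in 50 mM Tris, 137 mM NaCl pH 7.4, 5% DMSO, top concentration 500 μM, then S-2302 added ([…]). Absorbance at 405 nm read kinetically for 3 h; IC50 from initial rates, converted to Ki by Cheng-Prusoff.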

FXa = FXa (Homo sapiens, UniProt P00742); experiment: Determination of selectivity: FXa inhibition, chromogenic substrate S2765 assay; conditions: fold selectivity for FXIIa over FXa
FXa, sequence (P00742 235-488 limits assumed): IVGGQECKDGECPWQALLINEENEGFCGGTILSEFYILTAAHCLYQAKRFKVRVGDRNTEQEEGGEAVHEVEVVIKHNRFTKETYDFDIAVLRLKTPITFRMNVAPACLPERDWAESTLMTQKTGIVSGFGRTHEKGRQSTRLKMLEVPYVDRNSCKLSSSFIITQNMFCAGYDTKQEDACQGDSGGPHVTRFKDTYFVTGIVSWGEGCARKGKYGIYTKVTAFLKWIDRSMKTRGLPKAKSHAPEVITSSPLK
FXa, sequence (P00742 41-179 partner limits assumed): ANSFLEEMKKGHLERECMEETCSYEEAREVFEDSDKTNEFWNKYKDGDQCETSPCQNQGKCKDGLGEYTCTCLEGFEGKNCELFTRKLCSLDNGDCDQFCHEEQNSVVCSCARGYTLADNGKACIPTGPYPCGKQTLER
Summary of the method: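 Human FXa (5 nM) preincubated with compound (top 500 μM, 5% DMSO) 10 min at 37 °C in 50 mM Tris, 137 mM NaCl pH 7.4, then S2765 ([…]) added; A405 kinetics over 3 h at 37 °C. IC50 from initial rates, converted to Ki via Cheng-Prusoff.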

thrombin = biological target: T2, thrombin (Homo sapiens, UniProt P00734); experiment: Determination of selectivity: thrombin inhibition, chromogenic substrate GPR assay; conditions: fold selectivity for FXIIa over thrombin
T2 construct: FXa (5 nM) and thrombin (5 nM)
Summary of the method: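 Thrombin (5 nM) preincubated with compound 10 min at 37 °C in 50 mM Tris, 137 mM NaCl, pH 7.4, 5% DMSO, then GPR substrate ([…]) added. Absorbance at 405 nm read kinetically for 3 h; IC50 from initial rates, converted to Ki via Ki=IC50/(1+[S]/Km).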

Ki (FXIIa) [nM] | FXa (human)/FXIIa alpha (human) (FXa) | Thrombin (human)/FXIIa alpha (human) (thrombin) | Compound
> 2000 | ∘∘ | ++ (fold selectivity value of 10 to 100) | Cn1nnc2cc(CNC(=O)[C@@H]3C[C@H](N)CN3C(=O)[C@H](N)CCc3ccccc3)ccc21 [Example M05143]
> 2000 | ∘∘ | ++ (fold selectivity value of 10 to 100) | Cn1nnc2cc(CNC(=O)[C@@H]3C[C@@H](NC(=O)c4ccccc4)CN3C(=O)[C@H](N)CCc3ccccc3)ccc21 [Example M05179]
> 2000 | ∘∘ | ++ (fold selectivity value of 10 to 100) | Cn1nnc2cc(CNC(=O)[C@@H]3C[C@H](NCc4cccc(C(F)(F)F)c4)CN3C(=O)[C@H](N)CCc3ccccc3)ccc21 [Example M05159]
200 to 2000 | ∘∘ | ++ (fold selectivity value of 10 to 100) | Nc1cc(CNC(=O)[C@@H]2C[C@@](O)(c3ccc(F)c(F)c3)CN2C(=O)[C@H](N)CCc2ccccc2)ccn1 [Example M05127]
200 to 2000 | ∘∘ | ++ (fold selectivity value of 10 to 100) | Cn1nnc2cc(CNC(=O)[C@@H]3C[C@@H](Cc4ccc(Cl)cc4Cl)CN3C(=O)[C@H]3C[C@@H](c4ccccc4)CN3)ccc21 [Example M05373]
> 2000 | ∘ | + (fold selectivity values less than 10) | CC(=O)N[C@H]1C[C@@H](C(=O)NCc2ccnc(N)c2)N(C(=O)[C@H](N)CCc2ccccc2)C1 [Example M05141]
> 2000 | ∘∘ | + (fold selectivity values less than 10) | Cc1ccccc1CC[C@@H](N)C(=O)N1CCC[C@H]1C(=O)NCc1ccc(CN)cc1 [Example M00760]
> 2000 | ∘∘ | ++ (fold selectivity value of 10 to 100) | Cn1nnc2cc(CNC(=O)[C@@H]3C[C@@H](Cc4ccncc4)CN3C(=O)[C@@H](CCC(=O)N3CCCC3)NCCC(F)(F)F)ccc21 [Example M05262]
200 to 2000 | ∘∘∘ | ++ (fold selectivity value of 10 to 100) | NCc1ccc(CNC(=O)[C@@H]2C[C@@H](Cc3cccc(Cl)c3)CN2C(=O)[C@H](N)CCc2ccccc2)cc1 [Example M05130]
> 2000 | ∘∘ | ++ (fold selectivity value of 10 to 100) | Cn1nnc2cc(CNC(=O)[C@@H]3CC(Cc4ccccc4Br)CN3C(=O)[C@H]3C[C@@H](c4ccccc4)CN3)ccc21 (stereo partly drawn) [Example M05329]
> 2000 | ∘∘ | ++ (fold selectivity value of 10 to 100) | Cn1nnc2cc(CNC(=O)[C@@H]3CC(Cc4ccnc(F)c4)CN3C(=O)[C@H](N)CCC(=O)N3CCCC3)ccc21 (stereo partly drawn) [Example M05315]
> 2000 | ∘∘ | ++ (fold selectivity value of 10 to 100) | Cn1nnc2cc(CNC(=O)[C@@H]3C[C@H](NC(=O)Cc4ccccc4)CN3C(=O)[C@H](N)CCc3ccccc3)ccc21 [Example M05216]
> 2000 | ∘∘ | ++ (fold selectivity value of 10 to 100) | CC(=O)N(Cc1ccccc1)[C@H]1C[C@@H](C(=O)NCc2ccc3c(c2)nnn3C)N(C(=O)[C@H](N)CCc2ccccc2)C1 [Example M05161]
> 2000 | ∘∘ | ++ (fold selectivity value of 10 to 100) | Cn1nnc2cc(CNC(=O)[C@@H]3C[C@@H](Cc4cccnc4)CN3C(=O)[C@H]3C[C@@H](c4ccccc4)CN3)ccc21 [Example M05338]
> 2000 | ∘∘ | ++ (fold selectivity value of 10 to 100) | COc1ccc(C[C@@H]2C[C@@H](C(=O)NCc3ccc4c(c3)nnn4C)N(C(=O)[C@H]3CC(c4ccnn4C)CN3)C2)cc1 (stereo partly drawn) [Example M05376]

Compound | Ki (FXIIa) [nM] | FXa (human)/FXIIa alpha (human) (FXa) | Thrombin (human)/FXIIa alpha (human) (thrombin)
Cn1nnc2cc(CNC(=O)[C@@H]3CC(Cc4ccc(OC(F)(F)F)cc4)CN3C(=O)[C@H](N)CCC(=O)N3CCCC3)ccc21 (stereo partly drawn) [Example M05306, (S)-1-((R)-2-Amino-5-oxo-5-pyrrolidin-1-yl-pentanoyl)-4-(4-trifluoromethoxy-benzyl)-pyrrolidine-2-carboxylicacid (1-methyl-1H-benzotriazol-5-ylmethyl)-amide] | < 200 | ∘∘∘ | +++ (fold selectivity values greater than 100)
Cn1nnc2cc(CNC(=O)[C@@H]3C[C@@H](c4ccccc4)CN3C(=O)[C@H](N)CCC(=O)N3CCCC3)ccc21 [Example M05155] | 200 to 2000 | ∘∘∘ | +++ (fold selectivity values greater than 100)
COc1ccc(C[C@@H]2C[C@@H](C(=O)NCc3ccc4c(c3)nnn4C)N(C(=O)[C@H]3C[C@@H](c4ccccc4OC(F)(F)F)CN3)C2)cc1 [Example M05388] | 200 to 2000 | ∘∘∘ | +++ (fold selectivity values greater than 100)
COc1ccc(C[C@@H]2C[C@@H](C(=O)NCc3ccc4c(c3)nnn4C)N(C(=O)[C@H](N)CCc3ccccn3)C2)cc1 [Example M05453] | < 200 | ∘∘∘ | +++ (fold selectivity values greater than 100)
Cn1nnc2cc(CNC(=O)[C@@H]3C[C@@H](Cc4cc(F)cc(F)c4)CN3C(=O)[C@H](N)CCC(=O)N3CCCC3)ccc21 [Example M05274] | 200 to 2000 | ∘∘∘ | +++ (fold selectivity values greater than 100)
Cn1nnc2cc(CNC(=O)[C@@H]3C[C@@H](Cc4ccc(F)cc4F)CN3C(=O)[C@H](N)CCC(=O)N3CCCC3)ccc21 [Example M05235] | < 200 | ∘∘∘ | +++ (fold selectivity values greater than 100)
COc1ccc(C[C@@H]2C[C@@H](C(=O)NCc3ccc4c(c3)nnn4C)N(C(=O)[C@H](N)CCC(=O)N3C4CCC3CNC4)C2)cc1 [Example M05420] | < 200 | ∘∘∘ | +++ (fold selectivity values greater than 100)
COc1ccc(C[C@@H]2C[C@@H](C(=O)NCc3ccc4c(c3)nnn4C)N(C(=O)[C@H](N)CCC(=O)N3CCC[C@H]3C#N)C2)cc1 [Example M05402] | < 200 | ∘∘∘ | +++ (fold selectivity values greater than 100)
COc1ccc(C[C@@H]2C[C@@H](C(=O)NCc3cc4cnccc4[nH]3)N(C(=O)[C@H]3C[C@@H](N4CCCCC4)CN3)C2)cc1 [Example M00964] | < 200 | ∘∘∘ | +++ (fold selectivity values greater than 100)
COc1ccc(C[C@@H]2C[C@@H](C(=O)NCc3cc4cnccc4[nH]3)N(C(=O)C3NCCc4cc(OC)ccc43)C2)cc1 (single isomer, unassigned) [Example M00961] | < 200 | ∘∘∘ | +++ (fold selectivity values greater than 100)
Cn1cc(-c2cccc(C[C@@H]3C[C@@H](C(=O)NCc4ccc5c(c4)nnn5C)N(C(=O)[C@H](N)CCC(=O)N4CCCC4)C3)c2)cn1 [Example M05330] | 200 to 2000 | ∘∘∘ | +++ (fold selectivity values greater than 100)
CN(C)[C@H](CCC(=O)N1CCCC1)C(=O)N1C[C@H](Cc2cccnc2)C[C@H]1C(=O)NCc1ccc2c(c1)nnn2C [Example M05222] | 200 to 2000 | ∘∘∘ | +++ (fold selectivity values greater than 100)
Cn1nnc2cc(CNC(=O)[C@@H]3C[C@H](Cc4ccccc4)CN3C(=O)[C@H](N)CCC(=O)N3CCCC3)ccc21 [Example M05211, (2S,4S)-1-((R)-2-Amino-5-oxo-5-pyrrolidin-1-yl-pentanoyl)-4-benzyl-pyrrolidine-2-carboxylic acid (1-methyl-1H-benzotriazol-5-ylmethyl)-amide] | 200 to 2000 | ∘∘∘ | +++ (fold selectivity values greater than 100)
